Test results as given in US12239643B2, “Therapeutic agent for inflammatory diseases, autoimmune diseases, fibrotic diseases, and cancer diseases” (MEIJI SEIKA PHARMA CO., LTD., priority 2018, dated 2025).

Experiments:
Type in all cases: cell-based
IL-4 [1] = assay: Cytokine suppression using whole human blood: IL-4 (CytoStim and CD28 antibody stimulus); conditions: read-out: IL-4 Inhibitory Activity, Human Whole Blood (Test Example 3)
Method: (§1) The test compound dissolved in dimethyl sulfoxide was added to a 96-well plate, and RPMI-1640 medium and human peripheral blood containing sodium heparin were added, followed by culture at 37° C. under 5% CO2 for 1 hour. A medium containing only dimethyl sulfoxide instead of the test compound was added to the control well. […]
(§2) After collecting the culture supernatant after culturing, the amount of each cytokine was measured by the sandwich ELISA method. […]
(§3) The measurement results obtained by measuring the TNFα inhibitory activity and IL-5 inhibitory activity (50% inhibitory concentration) of the test compounds by the above method were evaluated in accordance with the following evaluated basis; A: less than 100 nM, B: 100 nM or more and less than 500 nM, and C: 500 nM or more. In addition, the measurement results obtained by measuring the IL-17A inhibitory activity and IL-4 inhibitory activity (50% inhibitory concentration) of the test compounds were evaluated in accordance with the following evaluated basis; A: less than 500 nM, B: 500 nM or more and less than 5000 nM, and C: 5000 nM or more.

IL-17A = assay: Cytokine suppression using whole human blood: IL-17A (phytohaemagglutinin stimulus); conditions: read-out: IL-17A Inhibitory Activity, Human Whole Blood (Test Example 3)
Method: as §1, §2, §3

IL-5 [2] = assay: Cytokine suppression using whole human blood: IL-5 (CytoStim and CD28 antibody stimulus); conditions: read-out: IL-5 Inhibitory Activity, Human Whole Blood (Test Example 3)
Method: as §1, §2, §3

IL-5 [3] = assay: Cytokine suppression using human T cells: IL-5; conditions: T-cell; human CD3-positive T cells, CD3 and CD28 antibody, about 48 hours; read-out: IL-5 Inhibitory Activity, Human T-Cell (Test Example 5)
Method: First, CD3-positive T cells were separated from whole blood by a magnetic bead method using an EasySep cell separation kit. Separated T cells suspended in RPMI-1640 medium were seeded on a 96-well plate previously coated with CD3 antibody (final concentration 3 μg/mL). Further, CD28 antibody (final concentration 5 ng/mL) was added as an IL-5 production stimulus and an IL-13 production stimulus. A test compound dissolved in dimethyl sulfoxide was added to each well, followed by culture at 37° C. under 5% CO2. The culture was carried out for about 18 hours for the evaluation of the amount of TNFα, and for about 48 hours for the evaluation of the amounts of IL-17A, IL-5, and IL-13. […]
(§4) The measurement results obtained by measuring the TNFα inhibitory activity (50% inhibitory concentration) of the test compounds by the above method were evaluated in accordance with the following evaluated basis; A: less than 10 nM, B: 10 nM or more and less than 100 nM, and C: 100 nM or more. In addition, the measurement results obtained by measuring the IL-17A inhibitory activity, IL-5 inhibitory activity, and IL-13 inhibitory activity (50% inhibitory concentration) of the test compounds were evaluated in accordance with the following evaluated basis; A: less than 500 nM, B: 500 nM or more and less than 5000 nM, and C: 5000 nM or more.

IL-4 [4] = assay: Cytokine suppression using human peripheral blood mononuclear cells: IL-4; conditions: human PBMC, CD3 antibody and CD28 antibody; read-out: IL-4 Inhibitory Activity, Human PBMC (Test Example 4)
Method: First, peripheral blood mononuclear cells (PBMC) were separated from whole blood by specific gravity centrifugation. Then, the isolated peripheral blood mononuclear cells were added to RPMI-1640 medium (containing 10% fetal bovine serum, penicillin, streptomycin, L-glutamine, and 2-mercaptoethanol), and cultured in a 96-well plate at 37° C. under 5% CO2 for 0 to 1 hour. The test compound dissolved in dimethyl sulfoxide was added to each well, followed by further culture at 37° C. under 5% CO2 for 1 hour. A medium containing only dimethyl sulfoxide instead of the test compound was added to the control well. […]
as §4, with “TNFα inhibitory activity and IL-5” for “TNFα”, “IL-23 inhibitory activity, IL-4” for “IL-5”

Structure (SMILES) | IC50 (IL-4 [1]) [nM] | IC50 (IL-17A) [nM] | IC50 (IL-5 [2]) [nM] | IC50 (IL-5 [3]) [nM] | IC50 (IL-4 [4]) [nM]
CC(C)(O)C(F)(F)Oc1ccc(-c2nccs2)c2oc(N3CC4CC(C3)N4)nc12 [Example 248, 1-((2-(3,6-Diazabicyclo[3.1.1]heptan-3-yl)-7-(thiazol-2-yl)benzo[d]oxazol-4-yl)oxy)-1,1-difluoro-2-methylpropan-2-ol] | < 500 | < 500 | < 500 | < 500 | < 500
CCOc1cc([C@@H](CS(C)(=O)=O)N2C(=O)c3cccc(NC(C)=O)c3C2=O)ccc1OC [apremilast, reference compound] | ≥ 5000 | ≥ 5000 | ≥ 5000 | ≥ 5000 | ≥ 5000
